Experimental data taken from US20050239358A1, “Antimicrobial melamine resin and products made therefrom” (MICROBAN PRODUCTS COMPANY, priority 2002, published 2005).

Test system: bacteria and fungi
Test: antimicrobial efficacy of agents in melamine formaldehyde resin
Conditions: agent for melamine resin; stated in words, no test described

Q: Which “efficacy as antimicrobial agent” value does the source give for `O=c1[nH]sc2ccccc12` [1,2-benzisothiazolin-3-one] here?
A: efficacious

Q: Which “efficacy as antimicrobial agent” value does the source give for `CCCCCCCCn1sc(Cl)c(Cl)c1=O` [4,5-dichloro-2-N-octyl-3(2H)-isothiazolone] here?
A: efficacious

Q: For `CCCCn1sc2ccccc2c1=O` [N-butyl-1,2-benzisothiazolin-3-one], which “efficacy as antimicrobial agent” value is on record?
A: efficacious

Q: For `Oc1cc(Cl)ccc1Oc1ccc(Cl)cc1Cl` [Triclosan, 2,4,4′-trichloro-2′-hydroxydiphenyl ether], which “efficacy as antimicrobial agent” value is on record?
A: particularly efficacious

Q: For `Cn1sc(Cl)cc1=O` [chloro-2-methyl-3(2H)-isothiazolone], which “efficacy as antimicrobial agent” value is on record?
A: efficacious

Q: Which “efficacy as antimicrobial agent” value does the source give for `Cn1sccc1=O` [methyl-3(2H)-isothiazolone] here?
A: efficacious

Test system: not given
Test: not given
Conditions: at 20° C.; cited from earlier work

Q: With `Oc1cc(Cl)ccc1Oc1ccc(Cl)cc1Cl` [Triclosan, 2,4,4′-trichloro-2′-hydroxydiphenyl ether] as the compound, how does the vapor pressure read?
A: 4×10^−4 mm
